For assay [1], the target named is T1, CrGluCl-A (Caligus rogercresseyi, UniProt A0A1W6LZ70). The conditions noted are these: cited from earlier work.
Assay [2] deals with CrGluCl-C. Format: cell-based, Caligus rogercresseyi. The method, then:
(§1) Adult female Xenopus laevis frogs were anaesthetized by immersion in a1g/L solution tricaine (Ethyl 3-aminobenzoate methanesulfonate, Sigma) buffered to pH 7 with NaHCO3. Surgery was performed 30–40 min later, once the frog was completely anaesthetized judging by loss of reflexes. Ovarian lobes were removed through 1 cm abdominal incision and then kept at 16°C in Barth’s modified solution containing (in mM): 88 NaCl, 1 KCl, 0.4 CaCl2, 0.3 Ca (NO3)2, 0.8 MgSO4, 2.4 NaHCO3, 5 Hepes, 2.5 sodium pyruvate, 100 μg/ml gentamicin sulfate, 100 U/ml penicillin, 100 μg/ml streptomycin, 250 μg/ml amphotericin B, 0.22μm filtered and adjusted to pH 7.5 with Tris-Base. Osmolarity was brought to 220 mOsm with saccharose. The oocytes were manually defolliculated on the same day of extraction and the following day 20 ng cRNA in nuclease-free water was injected into stage V-VI oocytes using a FemtoJet microinjector (Eppendorf). Finally, the injected oocytes were stored in 96 well plates containing Barth’s modified solution and kept at 16°C until experiment day.
(§2) Current measurements at controlled membrane potentials (voltage-clamp experiments) were performed using two intracellular microelectrodes in defolliculated Xenopus oocytes previously microinjected with 20 ng of cRNA. Voltage-clamp recording was performed at room temperature using a TURBO TEC-10CX amplifier (npi electronic GmbH, Tamm, Germany) and PClamp 10.6 software (Axon Instruments, USA), 1 to 4 days after oocyte injection. The oocytes were recorded in a chamber (Model RC-1Z, Warner Instrumenst, USA) under continuous superfusion. […] Reference was an Ag-AgCl electrode connected to the bath via a 3 M KCl in 3% agar bridge. Currents were recorded continuously during the experiments without interruptions for solution changes. Oocytes were held at -30 mV and a voltage protocol consisting of a voltage drop to -100 mV for 25ms followed by a 360 ms ramp from -100 mV to 60mV applied with a period of 565 ms was continuously given. The signal filtered at 1 kHz was acquired with a Digidata 1440A Analog-to-Digital Converter and analyzed with Axon pClamp 10.6 software. The solution that bathed the oocytes during the electrophysiological recordings had the following composition (mM): 115 NaCl, 2 KCl, 1.8 CaCl2, 1 MgCl2, 10 HEPES pH 7.5 obtained with NaOH. For the low chloride solution, all the NaCl was replaced with the gluconate salt of Na. This decreases chloride concentration from 122.6 to 7.6 mM while increasing that of gluconate from 0 to 115 mM. The stock solutions of the drugs in dimethyl sulfoxide (DMSO) were: 10 mM emamectin, 10 mM ivermectin, 100 mM picrotoxin. These were diluted in bath solution to obtain final concentrations.
(§3) The currents were normalized according to the extrapolated maximum current delivered by the Hill adjustment. In this way, the concentration that generates 50% of the maximum effect (EC50) and the Hill coefficient (nH) for each situation were obtained.

Assay [3] deals with CrGluCl-D. Format: cell-based, Caligus rogercresseyi. To be noted: CrGluCl-D, read-out: IC50 PTX inhibition of spontaneous current. As for the experimental part:
as §1, §2, §3

Assay [4] relates to CrGluCl-B. The assay is described as follows: Two-electrode voltage-clamp of Xenopus oocytes expressing CrGluCl-B. The conditions noted are these: CrGluCl-B. The class given is cell-based, Caligus rogercresseyi. The method, then: as §1, §2, §3
(Two-electrode voltage clamp holds a large cell at a set potential and records current.)

The target of assay [5] is T1, CrGluCl-A. The assay is described as follows: Two-electrode voltage-clamp of Xenopus oocytes expressing CrGluCl-A. Format: cell-based. To be noted: 100 μM PTX, CrGluCl-A. As for the experimental part:
as §1
Current measurements at controlled membrane potentials (voltage-clamp experiments) were performed using two intracellular microelectrodes in defolliculated Xenopus oocytes previously microinjected with 20 ng of cRNA. Voltage-clamp recording was performed at room temperature using a TURBO TEC-10CX amplifier (npi electronic GmbH, Tamm, Germany) and PClamp 10.6 software (Axon Instruments, USA), 1 to 4 days after oocyte injection. The oocytes were recorded in a chamber (Model RC-1Z, Warner Instrumenst, USA) under continuous superfusion. […] Reference was an Ag-AgCl electrode connected to the bath via a 3 M KCl in 3% agar bridge. Currents were recorded continuously during the experiments without interruptions for solution changes. […] The signal filtered at 1 kHz was acquired with a Digidata 1440A Analog-to-Digital Converter and analyzed with Axon pClamp 10.6 software. […]

Like-named read-outs stand apart in the source and are kept apart here.

T1 sequence (A0A1W6LZ70 entry or part of it): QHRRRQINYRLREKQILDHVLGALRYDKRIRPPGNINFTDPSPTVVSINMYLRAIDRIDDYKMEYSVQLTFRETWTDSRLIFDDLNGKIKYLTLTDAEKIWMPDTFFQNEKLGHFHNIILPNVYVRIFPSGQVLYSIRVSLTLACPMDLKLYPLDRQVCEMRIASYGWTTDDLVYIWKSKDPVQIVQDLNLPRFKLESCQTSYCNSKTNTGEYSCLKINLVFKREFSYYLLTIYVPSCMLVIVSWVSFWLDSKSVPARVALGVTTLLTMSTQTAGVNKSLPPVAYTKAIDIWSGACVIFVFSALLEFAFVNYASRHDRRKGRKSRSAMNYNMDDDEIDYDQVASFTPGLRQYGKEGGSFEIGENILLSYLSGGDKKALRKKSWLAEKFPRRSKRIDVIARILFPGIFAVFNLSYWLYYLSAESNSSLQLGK

As usually defined, the IC50 is the concentration that gives 50% inhibition. In the case of picrotoxin [PTX], the IC50 in assay [1] is 3.2 µM; in assay [2] (CrGluCl-C current elicited by 1 μM ivermectin, read-out: IC50 PTX inhibition of ivermectin-induced current), 275 ± 96 µM; in assay [3] (after 1 μM ivermectin (~2 min)) it was 221 ± 100 µM; in assay [3] (before ivermectin treatment), 16 ± 8.8 µM. Besides, the “inhibition by PTX” value in assay [2] (100 μM PTX, CrGluCl-C) is listed as 23 ± 10%; in assay [5] it was 78 ± 2%. Besides, in assay [2] (CrGluCl-C current elicited by 1 μM ivermectin), the “nH (PTX inhibition)” value was -1.2±0.22. Besides, the “inhibition by PTX of glutamate-elicited current” value in assay [4] (100 μM PTX, 1 mM glutamate) turned out to be 76 ± 9%.

As for emamectin, the EC50 in assay [1] (read-out: EC50 Ivermectin / avermectin irreversible activation) was about 0.2 µM. Also, the “antagonism of glutamate response” value in assay [4] (S3 Fig) is given as “antagonistic effect”.
